Molecular target: human aldose reductase (AR) (Homo sapiens, UniProt P15121)
Assay: X-ray crystallography
Type: biochemical

## O=C(O)COc1cc(F)ccc1C(=S)NCc1ccc(Br)cc1F [compound 594, IDD594]
  IC50: 124 ± 10 nM

Source: paper PMC4671318 (Proteins, 2012)
